The values below come from ChEMBL document CHEMBL1201862, “PubChem BioAssay data set” (2004).

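These data come from cells grown in 96-well plates and exposed to compound for 48 hours at five concentrations. Here, GI50 denotes the concentration required for 50% inhibition of growth.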 Activity calls are given as the source filed them. No stated cut-off is given here; in the data, active = GI50 up to about 1.1 µM and inactive = higher. Bridge positions count the residues as written; N and C are the ends. Square brackets hold non-standard residues; d marks the D form. Peptide text beside a SMILES is read from it. * marks the point of attachment. Cya = N[CH](CS(=O)(=O)O)C(=O)O; X49 = CC(C)CCCCCCCC(O)CC(=O)*; GABA = NCCCC(=O)O A value given as a limit tells only on which side of the number the result lay.

Among the test systems are HCT-116; MCF7; HCT-15; SK-MEL-2; HOP-92; Hs-578T; U-251; SF-295; MDA-MB-435; UACC-257; RPMI-8226; UO-31; OVCAR-3; SW-620; Malme-3M; DU-145; A498; K562; OVCAR-4; NCI-H522.
Holding throughout (test): NCI-60 cell line screen, 48 h

Regarding `CSc1ccc(NC(=O)C2CCCCC2C(=O)O)cc1` (stereo not given), the GI50 with HCT-116 is > 100 µM (inactive); with MCF7, > 100 µM (inactive); with HCT-15, > 100 µM; with SK-MEL-2, > 100 µM (inactive); in the assay on HOP-92, > 100 µM (inactive); in the assay on Hs-578T, > 100 µM (inactive). Also, the GI50 in the assay with U-251, with SF-295, in the assay on MDA-MB-435, in the assay on UACC-257, in the assay with RPMI-8226 and with UO-31 was > 100 µM (inactive) in each case. In addition, the GI50 in the assay on OVCAR-3, in the assay with SW-620, in the assay on Malme-3M, in the assay on DU-145, with A498 and with K562 was > 100 µM (inactive) throughout. In addition, the GI50 in the assay with OVCAR-4 and in the assay with NCI-H522 was > 100 µM (inactive) each time.

Consider `CSc1nc(Cl)c2c(n1)Sc1nc3cc4c(cc3n1C2O)OCCO4` (stereo not given), for which the GI50 was 0.0146 µM (active) in the assay with HCT-116; 0.053 µM (active) in the assay on MCF7; 0.104 µM with HCT-15; 0.923 µM (active) in the assay with SK-MEL-2; 0.875 µM (active) with HOP-92; 0.295 µM (active) in the assay on Hs-578T. In addition, the GI50 in the assay on U-251 is 0.223 µM (active); in the assay on SF-295 it was 0.379 µM (active); in the assay on MDA-MB-435, 0.0158 µM (active); in the assay on UACC-257, 11.1 µM (inactive); in the assay on RPMI-8226, 0.0318 µM (active); in the assay with UO-31, 0.112 µM (active). In addition, the GI50 is 0.137 µM (active) in the assay on OVCAR-3; 0.0153 µM (active) with SW-620; 0.847 µM (active) with Malme-3M; 0.124 µM (active) in the assay on DU-145; 0.708 µM (active) in the assay with A498; 0.0318 µM (active) in the assay with K562. Moreover, the GI50 in the assay with OVCAR-4 was 14.6 µM (inactive); in the assay with NCI-H522, 0.0382 µM (active).

With `O=[N+]([O-])C(=C/C1CCCCC1)/C(=C\C1CCCCC1)[N+](=O)[O-]`, the GI50 in the assay on HCT-116 is 6.43 µM (inactive); in the assay on MCF7, 5.3 µM (inactive); with HCT-15, 1.85 µM; in the assay with SK-MEL-2 it was 16.3 µM (inactive); with HOP-92, 7.05 µM (inactive); in the assay on Hs-578T, 2.84 µM (inactive). For the same compound, the GI50 with U-251 was 3.73 µM (inactive); in the assay on SF-295, 16.3 µM (inactive); with MDA-MB-435 it was 4.56 µM (inactive); with UACC-257, 8.63 µM (inactive); with RPMI-8226 it was 0.316 µM (active); in the assay on UO-31, 7.87 µM (inactive). Besides, the GI50 is 9.23 µM (inactive) in the assay on OVCAR-3; 3.35 µM (inactive) with SW-620; 2.2 µM (inactive) in the assay with Malme-3M; 13.3 µM (inactive) with DU-145; 15.3 µM (inactive) in the assay on A498; 4.49 µM (inactive) with K562. The GI50 with OVCAR-4 was 18.9 µM (inactive); with NCI-H522 it was 1.8 µM (inactive).

On to `O=c1c2ncn(CCCl)c2n(-c2ccccc2)c(=S)n1-c1ccccc1`, for which the GI50 in the assay on HCT-116 is > 100 µM (inactive); in the assay on MCF7, > 100 µM (inactive); in the assay with HCT-15, > 100 µM; in the assay with SK-MEL-2 it was > 100 µM (inactive); in the assay on HOP-92, > 100 µM (inactive); in the assay with Hs-578T it was 69.5 µM (inactive). Besides, the GI50 is > 100 µM (inactive) in the assay with U-251; > 100 µM (inactive) in the assay with SF-295; > 100 µM (inactive) in the assay with MDA-MB-435; > 100 µM (inactive) in the assay with UACC-257; > 100 µM (inactive) in the assay with RPMI-8226; 99.5 µM (inactive) with UO-31. In addition, the GI50 with OVCAR-3 was > 100 µM (inactive); in the assay on SW-620, > 100 µM (inactive); in the assay on Malme-3M, > 100 µM (inactive); with DU-145, > 100 µM (inactive); in the assay on A498, > 100 µM (inactive); in the assay on K562, 86.9 µM (inactive). For the same compound, the GI50 in the assay on OVCAR-4 and with NCI-H522 was > 100 µM (inactive) in each case.

On to `CCC(C#N)N(Cc1ccc(CN(C(=O)c2ccccc2)C(C#N)CC)cc1)C(=O)c1ccccc1` (stereo not given), for which the GI50 is 17.6 µM (inactive) in the assay with HCT-116; 19.2 µM (inactive) in the assay with MCF7; 22.2 µM in the assay on HCT-15; 21.7 µM (inactive) with SK-MEL-2; 13.2 µM (inactive) with HOP-92; 21.5 µM (inactive) with Hs-578T. For the same compound, the GI50 was 22.6 µM (inactive) with U-251; 17.6 µM (inactive) with SF-295; 25.5 µM (inactive) with MDA-MB-435; 16.6 µM (inactive) in the assay with UACC-257; 14.5 µM (inactive) in the assay with RPMI-8226; 19.7 µM (inactive) in the assay on UO-31. Further, the GI50 with OVCAR-3 is 16.7 µM (inactive); in the assay with SW-620, 28.5 µM (inactive); with Malme-3M, 31.6 µM (inactive); with DU-145, 28.6 µM (inactive); in the assay with A498, 18.8 µM (inactive); in the assay on K562, 13.9 µM (inactive). Further, the GI50 in the assay on OVCAR-4 is 17.4 µM (inactive); in the assay with NCI-H522 it was 23 µM (inactive).

As for `C=CCNC1=C2C[C@@H](C)C[C@@H](OC)C(OC(=O)CCCN(C)C)[C@H](C)/C=C(\C)[C@@H](OC(N)=O)[C@H](OC)/C=C\C=C(/C)C(=O)NC(=CC1=O)C2=O` (stereo not given in full), the GI50 with HCT-116 is 7.13 µM (inactive); in the assay with MCF7, 2.02 µM (inactive); in the assay on HCT-15 it was 6.32 µM; in the assay on SK-MEL-2, 12.6 µM (inactive); in the assay with HOP-92 it was 17.7 µM (inactive); in the assay on Hs-578T, 17.5 µM (inactive). Also, the GI50 was 10.6 µM (inactive) in the assay with U-251; 7.57 µM (inactive) in the assay with SF-295; 10.6 µM (inactive) with MDA-MB-435; 12.9 µM (inactive) in the assay on UACC-257; 6.49 µM (inactive) in the assay with RPMI-8226; 13.6 µM (inactive) in the assay with UO-31. Besides, the GI50 was 3.3 µM (inactive) in the assay on OVCAR-3; 4.48 µM (inactive) with SW-620; 4.16 µM (inactive) in the assay with Malme-3M; 5.02 µM (inactive) in the assay with DU-145; 13.8 µM (inactive) in the assay on A498; 4.06 µM (inactive) in the assay with K562. The GI50 was 9.14 µM (inactive) in the assay with OVCAR-4 and 8.07 µM (inactive) in the assay with NCI-H522.

`CC(Br)C(=O)c1ccc2cc(Br)c3ccccc3c2c1` (stereo not given): the GI50 in the assay with HCT-116 is 15.2 µM (inactive); in the assay on MCF7, 14.9 µM (inactive); in the assay on HCT-15, 16.6 µM; with SK-MEL-2 it was 13.2 µM (inactive); in the assay on HOP-92, 16.4 µM (inactive); in the assay with Hs-578T, 23.1 µM (inactive). For the same compound, the GI50 in the assay on U-251 was 13.7 µM (inactive); with SF-295, 16.4 µM (inactive); with MDA-MB-435, 14.5 µM (inactive); with UACC-257 it was 16.9 µM (inactive); in the assay with RPMI-8226 it was 4.65 µM (inactive); with UO-31 it was 17.6 µM (inactive). Moreover, the GI50 is 12.1 µM (inactive) with OVCAR-3; 6.01 µM (inactive) in the assay on SW-620; 15.1 µM (inactive) in the assay with Malme-3M; 16.5 µM (inactive) in the assay on DU-145; 18.7 µM (inactive) in the assay with A498; 4.18 µM (inactive) with K562. Moreover, the GI50 in the assay with OVCAR-4 was 16.7 µM (inactive); in the assay with NCI-H522 it was 3.97 µM (inactive).

As to `CC(C)C1CCC(=O)CC1CCCCC1CC(=O)CC1O[Si](C)(C)C(C)(C)C` (stereo not given), the GI50 was 3.18 µM (inactive) in the assay on HCT-116; 4.12 µM (inactive) in the assay with MCF7; 3.44 µM with HCT-15; 6.44 µM (inactive) in the assay on SK-MEL-2; 3.3 µM (inactive) with HOP-92; 3.03 µM (inactive) in the assay with Hs-578T. Moreover, the GI50 with U-251 was 2.32 µM (inactive); in the assay on SF-295 it was 9.62 µM (inactive); with MDA-MB-435, 2.95 µM (inactive); in the assay on UACC-257, 6.4 µM (inactive); in the assay with RPMI-8226 it was 1.95 µM (inactive); in the assay with UO-31, 7.66 µM (inactive). In addition, the GI50 is 14.4 µM (inactive) with OVCAR-3; 4.91 µM (inactive) in the assay with SW-620; 6.76 µM (inactive) with Malme-3M; 17 µM (inactive) in the assay with DU-145; 8.09 µM (inactive) with A498; 2.76 µM (inactive) in the assay with K562. Also, the GI50 in the assay with OVCAR-4 is 12.7 µM (inactive); in the assay with NCI-H522 it was 2.1 µM (inactive).

With `CC(C)CCCCCCCC(O)CC(=O)NC(CS(=O)(=O)O)C(=O)NC(CC(C)C)C(=O)NCCCC(=O)NC(Cc1c[nH]cn1)C(=O)NC(C)C(=O)NC1C(=O)NC(C(C)O)C(=O)NC(Cc2c[nH]cn2)C(=O)NC(C)C(=O)NC(C(C)O)C(=O)OC1C` (stereo not given) (X49-[Cya]L[GABA]HATTHAT; ester 6-C; configuration not given here), the GI50 in the assay on HCT-116 is > 25 µM (inactive); with MCF7, > 25 µM (inactive); with HCT-15, > 25 µM; with SK-MEL-2 it was > 25 µM (inactive); with HOP-92 it was > 25 µM (inactive); with Hs-578T it was > 25 µM (inactive). Besides, the GI50 in the assay on U-251, with SF-295, in the assay on MDA-MB-435, with UACC-257, in the assay on RPMI-8226 and with UO-31 was > 25 µM (inactive) throughout. Also, the GI50 with OVCAR-3, in the assay on SW-620, in the assay on Malme-3M, with DU-145, with A498 and in the assay on K562 was > 25 µM (inactive) in each case. Besides, the GI50 in the assay with OVCAR-4 and with NCI-H522 was > 25 µM (inactive) each time.

For the compound `CC(C)=CCC/C(C)=C/Cc1cc(/C=C/c2cc(O)c(CC=C(C)C)c(O)c2)cc(O)c1O` [MAPPAIN], the GI50 with HCT-116 was 3.37 µM (inactive); in the assay with MCF7, 3.45 µM (inactive); in the assay with HCT-15, 3.05 µM; in the assay with SK-MEL-2 it was 2.77 µM (inactive); in the assay with HOP-92, 3.93 µM (inactive); in the assay on Hs-578T it was 10.8 µM (inactive). Besides, the GI50 with U-251 is 2.18 µM (inactive); in the assay on SF-295, 4.65 µM (inactive); in the assay with MDA-MB-435, 2.55 µM (inactive); in the assay with UACC-257 it was 1.67 µM (inactive); in the assay with RPMI-8226, 0.506 µM (active); in the assay on UO-31, 1.29 µM (inactive). The GI50 in the assay with OVCAR-3 was 1.99 µM (inactive); in the assay with SW-620, 3.54 µM (inactive); in the assay with Malme-3M, 6.38 µM (inactive); in the assay with DU-145 it was 13.7 µM (inactive); with A498, 6.56 µM (inactive); in the assay on K562, 2.49 µM (inactive). Moreover, the GI50 with OVCAR-4 is 1.94 µM (inactive); in the assay with NCI-H522, 0.141 µM (active).
